The target of this test is hTRPV3 (Homo sapiens (Human), UniProt Q8NET8). As to the kind of experiment: Whole-cell patch clamp, hTRPV3 Phase 1 / Phase 2 currents. The class given is cell-based. Summed up: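 Whole-cell recordings on induced TRPV3 cells replated on coverslips, held at −40 mV with 400 ms ramps from −120 to +100 mV every 5 s; currents read at −80 and +80 mV. Ringer's external solution; current activated by heating to ≥28 °C or 20 μM 2-APB.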
For orientation: The patch-clamp technique gives a direct electrical read-out from membranes.

The mark [1] stands for this setting: Phase 1 current, inward, whole-cell patch clamp, read-out: hTRPV3 Patch P1 Inwd.
[2] abbreviates: Phase 1 current, read-out: hTRPV3 (nM) (Phase 1).
The mark [3] stands for this setting: Phase 2 current, inward, whole-cell patch clamp, read-out: hTRPV3 Patch P2 Inwd.
[4] abbreviates: Phase 2 current, read-out: hTRPV3 (nM) (Phase 2).

Like-named read-outs stand apart in the source and are kept apart here.

Chain of hTRPV3 (Q8NET8 whole entry): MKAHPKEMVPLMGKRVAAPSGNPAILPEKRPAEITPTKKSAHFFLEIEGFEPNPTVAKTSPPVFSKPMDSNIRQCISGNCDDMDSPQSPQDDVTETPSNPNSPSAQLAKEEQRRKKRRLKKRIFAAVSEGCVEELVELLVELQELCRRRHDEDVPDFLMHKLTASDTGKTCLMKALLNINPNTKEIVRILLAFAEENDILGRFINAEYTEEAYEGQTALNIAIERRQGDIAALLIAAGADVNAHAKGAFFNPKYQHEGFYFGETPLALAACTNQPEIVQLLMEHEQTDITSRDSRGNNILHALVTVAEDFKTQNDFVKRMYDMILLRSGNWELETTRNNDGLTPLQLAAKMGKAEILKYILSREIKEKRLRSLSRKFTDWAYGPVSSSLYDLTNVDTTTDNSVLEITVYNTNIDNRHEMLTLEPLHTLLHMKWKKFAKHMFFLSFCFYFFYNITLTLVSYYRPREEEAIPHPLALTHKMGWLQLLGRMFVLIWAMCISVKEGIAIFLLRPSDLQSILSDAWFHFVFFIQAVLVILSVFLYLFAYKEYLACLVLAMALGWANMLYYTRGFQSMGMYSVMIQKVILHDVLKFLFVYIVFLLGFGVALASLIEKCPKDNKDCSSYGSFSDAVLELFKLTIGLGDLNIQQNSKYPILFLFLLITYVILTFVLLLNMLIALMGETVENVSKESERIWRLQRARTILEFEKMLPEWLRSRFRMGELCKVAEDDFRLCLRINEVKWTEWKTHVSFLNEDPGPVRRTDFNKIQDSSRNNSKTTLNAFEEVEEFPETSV

As for `O=C(NCCO)c1cc(-c2ccccc2)ccc1N1CC[C@H](Oc2ccc(C(F)(F)F)cn2)C1` [Compound 1-153, (S)—N-(2-hydroxyethyl)-4-(3-(5-(trifluoromethyl)pyridin-2-yloxy)pyrrolidin-1-yl)biphenyl-3-carboxamide], the IC50 reads like this: under setting [1], above 1000 nM; under setting [2], 4420 nM.

For `O=C(NCCO)c1cc(-c2ccccc2Cl)ccc1N1CC[C@H](Oc2ccc(C(F)(F)F)cn2)C1` [Compound 1-156, (S)-2′-chloro-N-(2-hydroxyethyl)-4-(3-(5-(trifluoromethyl)pyridin-2-yloxy)pyrrolidin-1-yl)biphenyl-3-carboxamide], the IC50 runs as follows: under setting [1], above 1000 nM; under setting [2], 3750 nM.

With `Cc1cccnc1O[C@H]1CCN(c2ccc(Oc3ccccc3)cc2C(N)=O)C1` [Compound 1-163], the IC50 by setting is: under setting [1], above 1000 nM; under setting [2], 2180 nM.

In the case of `O=C(O)c1cc(-c2ccccc2)ccc1N1CC[C@H](Oc2ccc(C(F)(F)F)cn2)C1` [Compound 1-165, (S)-4-(3-(5-(trifluoromethyl)pyridin-2-yloxy)pyrrolidin-1-yl)biphenyl-3-carboxylic acid], the IC50 runs as follows: under setting [1], above 1000 nM; under setting [2], above 3200 nM.

Consider `O=C(O)c1cc(-c2ccccc2Cl)ccc1N1CC[C@H](Oc2ccc(C(F)(F)F)cn2)C1` [Compound 1-166, (S)-2′-chloro-4-(3-(5-(trifluoromethyl)pyridin-2-yloxy)pyrrolidin-1-yl)biphenyl-3-carboxylic acid], for which the IC50 by setting is: under setting [1], above 1000 nM; under setting [2], around 2210 nM; under setting [3], above 1000 nM; under setting [4], around 2230 nM.

On to `Cc1cccnc1O[C@H]1CCN(c2ccc(-c3ccccc3)cc2C(C)O)C1` (stereo partly drawn) [Compound 1-169, 1-(4-((S)-3-(3-methylpyridin-2-yloxy)pyrrolidin-1-yl)biphenyl-3-yl)ethanol], for which the IC50 was 100 to 1000 nM under setting [1], 476 nM under setting [2], 100 to 1000 nM under setting [3] and 655 nM under setting [4].

For `OCCCc1cc(-c2ccccc2)ccc1N1CC[C@H](Oc2ncccc2C(F)(F)F)C1` [Compound 1-170, (S)-3-(4-(3-(3-(trifluoromethyl)pyridin-2-yloxy)pyrrolidin-1-yl)biphenyl-3-yl)propan-1-ol], the IC50 was 100 to 1000 nM under setting [3] and 551 nM under setting [4].

Turning to `Cc1cccnc1O[C@H]1CCN(c2ccc(-c3ccccc3Cl)cc2C(C)O)C1` (stereo partly drawn) [Compound 1-172, 1-(2′-chloro-4-((S)-3-(3-methylpyridin-2-yloxy)pyrrolidin-1-yl)biphenyl-3-yl)ethanol], the IC50 by setting is: under setting [1], 100 to 1000 nM; under setting [2], 882 nM.

With `Cc1ccccc1-c1ccc(N2CC[C@H](Oc3ccc(C(F)(F)F)cn3)C2)c(CCCO)c1` [Compound 1-176, (S)-3-(2′-methyl-4-(3-(5-(trifluoromethyl)pyridin-2-yloxy)pyrrolidin-1-yl)biphenyl-3-yl)propan-1-ol], the IC50 under setting [1] was above 1000 nM, the IC50 under setting [2] was above 3200 nM, the IC50 under setting [3] was above 1000 nM and the IC50 under setting [4] came to 2550 nM.

Regarding `OCc1csc(-c2cccc(N3CC[C@H](Oc4ccc(C(F)(F)F)cn4)C3)c2)n1` [Compound 1-177], the IC50 under setting [1] is above 1000 nM.

Take `Cc1ccc(O[C@H]2CCN(c3ccc(-c4ccccc4C)nc3CO)C2)nc1` [Compound 1-189, (S)-(3-(3-(5-methylpyridin-2-yloxy)pyrrolidin-1-yl)-6-o-tolylpyridin-2-yl)methanol]: the IC50 under setting [1] was 100 to 1000 nM, the IC50 under setting [2] was found to be 636 nM, the IC50 under setting [3] is above 1000 nM and the IC50 under setting [4] worked out at 1120 nM.

Regarding `Cc1ccc(O[C@H]2CCN(c3ccc(-c4ccccc4C#N)nc3CO)C2)nc1` [Compound 1-190, (S)-2-(6-(hydroxymethyl)-5-(3-(5-methylpyridin-2-yloxy)pyrrolidin-1-yl)pyridin-2-yl)benzonitrile], the IC50 under setting [1] is above 1000 nM, the IC50 under setting [2] was above 3200 nM, the IC50 under setting [3] is above 1000 nM and the IC50 under setting [4] was above 3200 nM.

On to `COc1ccccc1-c1ccc(N2CC[C@H](Oc3ccc(C)cn3)C2)c(CO)n1` [Compound 1-191, (S)-(6-(2-methoxyphenyl)-3-(3-(5-methylpyridin-2-yloxy)pyrrolidin-1-yl)pyridin-2-yl)methanol], for which the IC50 was above 1000 nM under setting [1] and above 3200 nM under setting [2].

As for `Cc1cccnc1O[C@H]1CCN(c2ccc(-c3ccccc3C#N)nc2CO)C1` [Compound 1-192, (S)-2-(6-(hydroxymethyl)-5-(3-(3-methylpyridin-2-yloxy)pyrrolidin-1-yl)pyridin-2-yl)benzonitrile], the IC50 runs as follows: under setting [1], above 1000 nM; under setting [2], above 3200 nM; under setting [3], above 1000 nM; under setting [4], around 2750 nM.

For `Cc1cccnc1O[C@H]1CCN(c2ccc(-c3ccccc3)cc2CCO)C1` [Compound 1-193, (S)-2-(4-(3-(3-methylpyridin-2-yloxy)pyrrolidin-1-yl)biphenyl-3-yl)ethanol], the IC50 was 100 to 1000 nM under setting [1] and 260 nM under setting [2].

As to `Cc1ccccc1-c1ccc(N2CC[C@H](Oc3ccc(Cl)cn3)C2)c(CO)n1` [Compound 1-195, (S)-(3-(3-(5-chloropyridin-2-yloxy)pyrrolidin-1-yl)-6-o-tolylpyridin-2-yl)methanol], the IC50 under setting [1] was 100 to 1000 nM, the IC50 under setting [2] worked out at 106 nM, the IC50 under setting [3] was 10 to 100 nM and the IC50 under setting [4] worked out at 71.3 nM.

With `CCc1ccccc1-c1ccc(N2CC[C@H](Oc3ccc(C(F)(F)F)cn3)C2)c(CO)n1` [Compound 1-196, (S)-(6-(2-ethylphenyl)-3-(3-(5-(trifluoromethyl)pyridin-2-yloxy)pyrrolidin-1-yl)pyridin-2-yl)methanol], the IC50 runs as follows: under setting [1], above 1000 nM; under setting [2], above 3200 nM.

Regarding `Cc1ccccc1-c1ccc(N2CC[C@H](Oc3ncccc3C)C2)c(CCO)c1` [Compound 1-198, (S)-2-(2′-methyl-4-(3-(3-methylpyridin-2-yloxy)pyrrolidin-1-yl)biphenyl-3-yl)ethanol], the IC50 runs as follows: under setting [1], 100 to 1000 nM; under setting [2], 184 nM.

Consider `OCc1nc(Oc2ccccc2)ccc1N1CC[C@H](Oc2ccc(C(F)(F)F)cn2)C1` [Compound 1-199, (S)-(6-phenoxy-3-(3-(5-(trifluoromethyl)pyridin-2-yloxy)pyrrolidin-1-yl)pyridin-2-yl)methanol], for which the IC50 is above 1000 nM (hTRPV3 Patch P1 Inwd (nM)), above 1000 nM (hTRPV3 Patch P2 Inwd (nM)), above 3200 nM (read-out: hTRPV3 (nM) (Phase 1)) and above 3200 nM (read-out: hTRPV3 (nM) (Phase 2)).

As for `Cc1ccc(O[C@H]2CCN(c3ccc(-c4ccccc4C)nc3CCO)C2)nc1` [Compound 1-200, (S)-2-(3-(3-(5-methylpyridin-2-yloxy)pyrrolidin-1-yl)-6-o-tolylpyridin-2-yl)ethanol], the IC50 runs as follows: under setting [1], 100 to 1000 nM; under setting [2], 709 nM.

Regarding `CCc1ccccc1-c1ccc(N2CC[C@H](Oc3ccc(Cl)cn3)C2)c(CO)n1` [Compound 1-201, (S)-(3-(3-(5-chloropyridin-2-yloxy)pyrrolidin-1-yl)-6-(2-ethylphenyl)pyridin-2-yl)methanol], the IC50 was above 1000 nM under setting [1] and above 3200 nM under setting [2].

`COc1ccccc1-c1ccc(N2CC[C@H](Oc3ccc(Cl)cn3)C2)c(CO)n1` [Compound 1-202, (S)-(3-(3-(5-chloropyridin-2-yloxy)pyrrolidin-1-yl)-6-(2-methoxyphenyl)pyridin-2-yl)methanol]: the “hTRPV3 (nM) (Phase 1)” value (Phase 1 current) was “Incomplete Block (Phase 1)”.

These data come from patent US12435061B2 (priority 2020, dated 2025).
